Like-named read-outs stand apart in the source and are kept apart here.
What was measured:
LCK tyrosine kinase = target: T1, LCK tyrosine kinase (Homo sapiens, UniProt P06239, C224D/P223M); test: LCK spectrophotometric assay; assay type: biochemical; settings: Table 1; for inhibition at 1 µM: compound concentration 1 μM, read-out: Lck-P % inhibition
T1 construct: starting from amino acid residue 223 to the end of the protein at residue 509; made in house; host or cells: insect cells
Procedure: The production of ADP from ATP that accompanies phosphoryl transfer was coupled to oxidation of NADH using phosphoenolpyruvate (PEP) and a system having pyruvate kinase (PK) and lactic dehydrogenase (LDH). The oxidation of NADH was monitored by following the decrease of absorbance at 340 nm (e340=6.22 cm^−1 mM^−1) using a Beckman DU 650 spectrophotometer. […] Ki values were determined by measuring enzyme activity in the presence of varying concentrations of test compounds. The data were analyzed using Enzyme Kinetic and Kaleidagraph software.
The spectrophotometric assay was carried out as described above for VEGF-R2, except for the following changes in concentration: LCK=60 nM, MgCl2=0 mM, poly(E4Y1)=20 mM.

human CHK1 (FL-CHK1) = target: T2, human CHK1 (FL-CHK1) (Homo sapiens, UniProt O14757); test: CHK1 assay (coupled spectrophotometric, Syntide-2); assay type: biochemical; settings: read-out: CHK-1 Ki
T2 construct: C-terminally His-tagged full-length human CHK1 (FL-CHK1); made in house; host or cells: baculovirus/insect cell system
T2 sequence (O14757 1-476): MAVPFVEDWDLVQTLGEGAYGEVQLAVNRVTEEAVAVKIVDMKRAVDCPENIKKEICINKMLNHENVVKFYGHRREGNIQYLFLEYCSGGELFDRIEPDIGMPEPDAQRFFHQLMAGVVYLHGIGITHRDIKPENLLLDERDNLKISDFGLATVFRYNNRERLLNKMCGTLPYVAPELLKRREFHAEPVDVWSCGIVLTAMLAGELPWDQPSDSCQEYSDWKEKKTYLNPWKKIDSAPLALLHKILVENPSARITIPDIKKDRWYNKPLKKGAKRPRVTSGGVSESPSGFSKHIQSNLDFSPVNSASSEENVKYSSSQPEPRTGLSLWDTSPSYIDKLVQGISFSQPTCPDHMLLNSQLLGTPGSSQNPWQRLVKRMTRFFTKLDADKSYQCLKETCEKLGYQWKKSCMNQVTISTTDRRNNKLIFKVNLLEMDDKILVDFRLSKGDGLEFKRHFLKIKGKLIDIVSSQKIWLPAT
Summary of the method: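 Full-length C-terminally His-tagged human CHK1 expressed in baculovirus/insect cells, used at 10 nM with Syntide-2 substrate. ADP formation coupled via PK/LDH to NADH oxidation, followed as absorbance decrease at 340 nm. Ki from initial rates at varying compound concentrations.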

CDK4/Cyclin D3 complex = CDK4/Cyclin D3 complex (Homo sapiens, UniProt P11802); test: CDK4/Cyclin D assay ([32P]ATP, Rb fragment)
Sequence of CDK4/Cyclin D3 complex (P11802 whole entry, the tested form may be a part): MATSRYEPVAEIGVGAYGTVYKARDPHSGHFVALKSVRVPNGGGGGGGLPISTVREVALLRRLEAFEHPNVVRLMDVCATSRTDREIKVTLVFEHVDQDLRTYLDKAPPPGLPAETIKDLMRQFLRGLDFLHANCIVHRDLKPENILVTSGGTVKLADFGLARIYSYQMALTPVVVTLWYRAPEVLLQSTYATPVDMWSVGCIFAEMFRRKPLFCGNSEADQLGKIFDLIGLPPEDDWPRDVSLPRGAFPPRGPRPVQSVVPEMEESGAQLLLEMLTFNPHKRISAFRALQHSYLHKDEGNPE
Sequence of CDK4/Cyclin D3 complex (P30281 whole entry partner, the tested form may be a part): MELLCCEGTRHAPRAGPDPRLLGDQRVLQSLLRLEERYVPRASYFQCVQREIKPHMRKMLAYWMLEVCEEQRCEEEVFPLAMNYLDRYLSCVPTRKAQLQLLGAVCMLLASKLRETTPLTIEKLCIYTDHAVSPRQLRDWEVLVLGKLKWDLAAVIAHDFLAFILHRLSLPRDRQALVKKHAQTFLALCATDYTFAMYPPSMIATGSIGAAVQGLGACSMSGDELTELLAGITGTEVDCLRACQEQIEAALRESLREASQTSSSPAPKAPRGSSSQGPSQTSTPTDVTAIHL

[1] = target: unphosphorylated VEGF-R2Δ50 (FLVK) (Homo sapiens, UniProt P35968, DEL940-989/E990V); test: VEGF-R2 coupled spectrophotometric assay, unphosphorylated VEGF-R2Δ50 (FLVK); settings: for Ki: FLVK Ki, Table 1
Sequence of unphosphorylated VEGF-R2Δ50 (FLVK) (P35968 with tags, fused parts or gaps DEL940-989/E990V limits assumed): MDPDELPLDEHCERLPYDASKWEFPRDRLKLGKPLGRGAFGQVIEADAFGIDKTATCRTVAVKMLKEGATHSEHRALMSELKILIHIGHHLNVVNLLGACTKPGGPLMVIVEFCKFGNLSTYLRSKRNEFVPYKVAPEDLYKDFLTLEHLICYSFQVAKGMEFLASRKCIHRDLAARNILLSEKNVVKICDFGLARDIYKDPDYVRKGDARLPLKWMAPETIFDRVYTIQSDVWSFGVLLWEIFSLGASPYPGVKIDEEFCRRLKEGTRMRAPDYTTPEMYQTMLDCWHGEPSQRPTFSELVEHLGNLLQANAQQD

[2] = target: phosphorylated VEGF-R2Δ50 (FLVK-P) (Homo sapiens, UniProt P35968, DEL940-989/E990V); test: VEGF-R2 coupled spectrophotometric assay, phosphorylated VEGF-R2Δ50 (FLVK-P)
Sequence of phosphorylated VEGF-R2Δ50 (FLVK-P) (P35968 with tags, fused parts or gaps DEL940-989/E990V limits assumed): as above

[3] = system: human umbilical vein endothelial cells (HUVEC); test: HUVEC proliferation assay (VEGF-stimulated, MTT); assay type: cell-based; settings: Homo sapiens, HUVEC
human FGF-R1 = human FGF-R1 (Homo sapiens, UniProt P11362, C488A/C584S/L457V); test: FGF-R spectrophotometric assay; settings: for inhibition at 1 µM: read-out: FGF-P % inhibition, Table 1, compound concentration 1 μM
Sequence of human FGF-R1 (P11362 456-766 L457V/C488A/C584S): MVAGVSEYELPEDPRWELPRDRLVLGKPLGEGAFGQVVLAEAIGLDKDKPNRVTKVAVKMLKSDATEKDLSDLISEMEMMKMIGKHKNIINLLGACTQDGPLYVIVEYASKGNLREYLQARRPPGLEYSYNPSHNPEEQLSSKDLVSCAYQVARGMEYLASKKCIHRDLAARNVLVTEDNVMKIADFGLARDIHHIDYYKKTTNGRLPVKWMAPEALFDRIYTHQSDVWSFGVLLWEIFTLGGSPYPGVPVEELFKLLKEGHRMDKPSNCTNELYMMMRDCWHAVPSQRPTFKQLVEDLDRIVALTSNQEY

CDK2/Cyclin A = CDK2/Cyclin A (Homo sapiens, UniProt P24941); test: CDK2/Cyclin A assay ([32P]ATP, Rb fragment); assay type: biochemical; settings: Table 3
CDK1 = CDK1 (Homo sapiens, UniProt P06493); test: CDK1 inhibition; assay type: biochemical; settings: Table 3
Sequence of CDK1 (P06493 whole entry, species assumed): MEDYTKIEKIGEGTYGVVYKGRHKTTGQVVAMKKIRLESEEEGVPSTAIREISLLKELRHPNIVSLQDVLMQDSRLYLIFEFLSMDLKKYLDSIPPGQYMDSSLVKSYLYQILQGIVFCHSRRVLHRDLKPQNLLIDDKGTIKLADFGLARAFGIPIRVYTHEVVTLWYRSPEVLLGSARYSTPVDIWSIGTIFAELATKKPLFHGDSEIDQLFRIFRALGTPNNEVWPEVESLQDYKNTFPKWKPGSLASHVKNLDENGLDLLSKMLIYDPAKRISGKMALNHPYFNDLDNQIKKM
Sequence of CDK1 (P14635 whole entry partner, species assumed): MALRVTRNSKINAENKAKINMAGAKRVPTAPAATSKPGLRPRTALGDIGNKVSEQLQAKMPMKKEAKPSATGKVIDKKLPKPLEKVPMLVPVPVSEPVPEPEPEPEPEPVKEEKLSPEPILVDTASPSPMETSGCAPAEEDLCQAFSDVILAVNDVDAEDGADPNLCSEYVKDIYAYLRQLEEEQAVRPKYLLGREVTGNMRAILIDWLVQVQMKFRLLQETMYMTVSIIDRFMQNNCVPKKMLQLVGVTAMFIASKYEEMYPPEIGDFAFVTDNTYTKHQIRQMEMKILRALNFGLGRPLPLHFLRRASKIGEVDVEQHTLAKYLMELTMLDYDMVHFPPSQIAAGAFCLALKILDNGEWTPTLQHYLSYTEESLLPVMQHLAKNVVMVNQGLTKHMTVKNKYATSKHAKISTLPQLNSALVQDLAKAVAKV

[4] = Determination of inhibitor concentration in mouse plasma after intraperitoneal and oral dosing; assay type: in vivo
Summary of the method: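 Mice dosed intraperitoneally or orally; blood taken by ocular bleed at 0.5, 1 and 4 h and by intracardiac puncture at 7 h. Plasma extracted with ethyl acetate after internal standard and NaOH addition, analysed by HPLC or LC-MS against a mouse-plasma standard curve.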

[5] = + albumin, read-out: HUVEC + albumin IC50
[6] = PO, 25 mg/kg, vehicle PEG400:H2O pH 2.3 30:70
[7] = female, PO, 25 mg/kg, vehicle PEG400:H2O pH 2.3 30:70, read-out: Cmin (7 hr conc.)
[8] = IP, 25 mg/kg, vehicle PEG400:H2O pH 2.3 60:40
[9] = PO, 50 mg/kg, vehicle PEG400:H2O pH 2.3 60:40

T1 sequence (P06239 223-509 P223M/C224D): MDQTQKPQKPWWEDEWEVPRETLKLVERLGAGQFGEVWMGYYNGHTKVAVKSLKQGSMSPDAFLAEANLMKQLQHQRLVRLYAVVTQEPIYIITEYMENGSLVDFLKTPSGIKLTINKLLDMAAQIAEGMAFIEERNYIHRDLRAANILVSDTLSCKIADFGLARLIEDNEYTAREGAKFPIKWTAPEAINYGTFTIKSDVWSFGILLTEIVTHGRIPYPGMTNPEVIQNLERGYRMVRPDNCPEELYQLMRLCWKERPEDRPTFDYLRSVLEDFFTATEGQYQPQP

Work on `Oc1cccc(Oc2ccc3c(/C=C/c4ccccc4)n[nH]c3c2)c1` [Example 9(a), 3-(E-styryl)-6-[3-hydroxyphenoxy]-1H-indazole] yielded a Ki (LCK tyrosine kinase; read-out: Lck-P Ki) of 0.162 µM, a Ki (human CHK1 (FL-CHK1); Table 1) of 0.4 µM and a Ki (CDK4/Cyclin D3 complex) of 1.7 µM. For the same compound, the Ki [1] was 0.0024 µM and the Ki [2] was 0.016 µM.
With `O=C(c1cccc(NC(=O)c2ccno2)c1)c1ccc2c(/C=C/c3ccccc3)n[nH]c2c1` [Example 19(l)] the inhibition at 1 µM (LCK tyrosine kinase) was 36%, the IC50 [3, 5] was 0.1 µM and the inhibition at 1 µM (human FGF-R1) was 88%. It also gave a Ki [1] of 0.00072 µM and a Ki [2] of 0.0047 µM.
`C(=C\c1n[nH]c2cc(-c3ccncc3)ccc12)/c1ccccc1` [Example 27(f)] showed a Ki (human CHK1 (FL-CHK1); Table 3) of 0.35 µM, a Ki (CDK2/Cyclin A) of 3.3 µM and a Ki (CDK1) of 0.223 µM. For the same compound, the Ki (CDK4/Cyclin D3 complex) was 0.78 µM.
For `Cc1cccc(/C=C/c2n[nH]c3cc(-c4ccncc4)ccc23)c1` [Example 29(b), 6-Pyrid-4-yl-3-E-[2-(3-methylphenyl)ethenyl]-1H-indazole], the Ki (CDK2/Cyclin A) was 3 µM, the Ki (CDK1) was 0.9 µM and the Ki (CDK4/Cyclin D3 complex) was 3.9 µM.
For `C#CCNC(=O)c1ccccc1Nc1ccc2c(/C=C/c3ccccn3)n[nH]c2c1` [Example 39(b), 6-[2-(Prop-2-ynylcarbamoyl)phenylamino]-3-E-[2-(pyridin-2-yl)ethenyl]-1H-indazole], the inhibition at 1 µM (LCK tyrosine kinase) was 10%, the IC50 [3, 5] was over 0.01 µM and the “plasma half-life (T1/2)” value [4, 6] was 11.8 h. For the same compound, the AUC(0-t) ([4]; female, PO, 25 mg/kg, vehicle PEG400:H2O pH 2.3 30:70) was over 31000 ng·h/mL, the Cmax ([4]; female, PO, 25 mg/kg, vehicle PEG400:H2O pH 2.3 30:70, read-out: Cmax) was over 5000 ng/mL and the concentration at 7 h [4, 7] was 3150 ng/mL. It also gave an inhibition at 1 µM (human FGF-R1) of 50%.
`O=C(c1cccc(NC(=O)c2ccccn2)c1)c1ccc2c(/C=C/c3ccccn3)n[nH]c2c1` [Example 41(aa), 6-[3-(Pyridin-2-ylcarboxamido)benzoyl]-3-E-[2-(pyridin-2-yl)ethenyl]-1H-indazole] showed an inhibition at 1 µM (LCK tyrosine kinase) of 49%, an IC50 [3, 5] of 0.0052 µM and an IC50 ([3]; read-out: HUVEC IC50) of 0.001 µM. The AUClast [4, 8] was 6659 ng·h/mL, the “plasma half-life (T1/2)” value [4, 8] was 2.1 h and the AUClast [4, 9] was 289 ng·h/mL. For the same compound, the “plasma half-life (T1/2)” value [4, 9] was 0.9 h, the concentration at 7 h ([4]; female, IP, 25 mg/kg, vehicle PEG400:H2O pH 2.3 60:40, read-out: Cmin (7 hr conc.)) was 124 ng/mL and the concentration at 7 h ([4]; female, PO, 50 mg/kg, vehicle PEG400:H2O pH 2.3 60:40, read-out: Cmin (7 hr conc.)) was 5 ng/mL. The inhibition at 1 µM (human FGF-R1) was 37% and the Ki [1] was 0.00011 µM.
`CCCn1nc(C)cc1C(=O)Nc1cc(C(=O)c2ccc3c(/C=C/c4ccccn4)n[nH]c3c2)ccc1C` [Example 41(ii), 6-[3-((1-n-Propyl-3-methyl-1H-pyrazol-5-yl)carboxamido)-4-methylbenzoyl]-3-E-[2-(pyridin-2-yl)ethenyl]-1H-indazole] showed an inhibition at 1 µM (LCK tyrosine kinase) of 18%, an IC50 [3, 5] of 0.013 µM and an AUClast [4, 6] of 7094 ng·h/mL. The Cmax [4, 6] was 1826 ng/mL, the “plasma half-life (T1/2)” value [4, 6] was 2.3 h and the concentration at 7 h [4, 7] was 346 ng/mL. It also gave a Ki (human FGF-R1) of 0.011 µM and an inhibition at 0.05 µM ([1]; read-out: FLVK % inhibition) of 57%.

Source: patent US6534524B1, “Indazole compounds and pharmaceutical compositions for inhibiting protein kinases, and methods for their use” (Agouron Pharmaceuticals, Inc., priority 1999, dated 2003)
